According to US10875829B1, “Azetidine derivatives useful as modulators of cortical catecholaminergic neurotransmission” (Integrative Research Laboratories Sweden AB, priority 2016, dated 2020):
Counter-ions that a name gives are not always drawn. Like-named read-outs stand apart in the source and are kept apart here. Marks after values point to notes of the source that are not given here.

Tests used:
DOPAC = assay: In vivo neurochemistry: tissue levels of DOPAC in brain regions; set-up: species or system rats; conditions: 100 μmol/kg s.c., 65 min before sacrifice, control saline, n=5
Description: The change in turnover of dopamine in the terminal areas of the ascending dopaminergic projections of the mammalian brain can be illustrated by measuring of changes in biochemical indices in the brain e.g. changes in concentrations of dopamine metabolites such as 3,4-dihydroxyphenyl-acetic acid (DOPAC) in the striatum and frontal cortex.
The measurement of the tissue content of DOPAC is well established in the field of research since the 1960's. In short, male Sprague-Dawley rats are administered the test compound 60 minutes prior to decapitation. The brain is rapidly taken out and dissected. The striatum is rapidly frozen and subsequently quantitatively analyzed with respect to its content of DOPAC by means of HPLC and electrochemical detection. The number of animals used for each test compound/vehicle is 5/group.
After the behavioural activity sessions, the rats were decapitated and their brains rapidly taken out and put on an ice-cold petri-dish. The brains were dissected into a right and a left part of which the right part was analyzed for neurochemicals with HPLC and the left part was analyzed for gene expression. The limbic forebrain, the striatum, the frontal cortex, the hippocampus and the remaining hemispheral parts of each rat were dissected and frozen. Each brain part was subsequently analyzed with respect to its content of monoamines and their metabolites.
The monoamine transmitter substances (NA (noradrenaline), DA (dopamine), 5-HT (serotonin)) as well as one corresponding acid, (DOPAC (3,4-dihydroxyphenylacetic acid), were quantified in brain tissue homogenates by HPLC separations and electrochemical detection.
The analytical method is based on two chromatographic separations dedicated for amines or acids. Two chromatographic systems share a common auto injector with a 10-port valve and two sample loops for simultaneous injection on the two systems. Both systems are equipped with a reverse phase column (Luna C18 (2), dp 3 μm, 50*2 mm i.d., Phenomenex) and electrochemical detection is accomplished at two potentials on glassy carbon electrodes (MF-1000, Bioanalytical Systems, Inc.). The column effluent is passed via a T-connection to the detection cell or to a waste outlet. This is accomplished by two solenoid valves, which block either the waste or detector outlet. By preventing the chromatographic front from reaching the detector, better detection conditions are achieved. The aqueous mobile phase (0.4 ml/min) for the acid system contains citric acid 14 mM, sodium citrate 10 mM, Methanol 15% (v/v) and EDTA 0.1 mM. Detection potentials relative to Ag/AgCl reference are 0.45 and 0.60V. […] Detection potentials relative to Ag/AgCl reference are 0.45 and 0.65V.
Each compound or saline solution (control) indicated in the above table was administered subcutaneously (s.c.) 65 min before sacrificing the animals. DOPAC results are presented as percent of control means±SEM (standard error of the mean). Statistical significance was assessed using Student's t-test (2 tailed) vs controls. * denotes p<0.05, ** p<0.01, *** p<0.001, n=5.

NA, DA and 5-HT = assay: In vivo brain microdialysis: extracellular monoamines in striatum and frontal cortex; set-up: species or system Sprague-Dawley rats; conditions: for response vs control in vivo at 16.7 µmol/kg / response vs control in vivo at 50 µmol/kg: Rattus norvegicus, sc
Description: The microdialysis technique is a well-established technique for measuring extracellular levels of neurotransmitters (Ungerstedt, J Int Med, 1991, 230; 365-73). The microdialysis technique was used to measure the effect of compounds disclosed herein upon the efflux of monoamine transmitters (NA, DA and 5-HT) in striatum and frontal cortex in conscious, freely moving rats.
Male Sprague-Dawley rats weighing 280-320 g were used throughout the experiments. Before the experiment the animals were housed in groups, maximum five animals in each cage, with free access to water and food. The animals were housed at least one week prior to surgery and use in the experiments.
A modified version (Waters et al., J Neural Transm Gen Sect, 1994, 98(1); 39-55) of the !-shaped probe (Santiago and Westerink, N-S Arch Pharmacol, 1990, 342; 407-14) with the AN69 polyacrylonitrile/sodium methyl sulfonate copolymer (HOSPAL; o.d/i.d. 310/220 μm: dialysis membrane (Gambro, Lund, Sweden) was used in the microdialysis experiments. In the dorsal striatum, probes with an exposed length of 3 mm of dialysis membrane were used and in the prefrontal cortex the corresponding length was 2.5 mm. The rats were operated under isoflurane inhalation anesthesia while mounted into a Kopf stereotaxic instrument. Coordinates were calculated relative to bregma; dorsal striatum AP+1.0, ML±2.6, DV 6.2; Pf cortex, AP+3.2, ML±1.2, DV −4.0 8°, according to Paxinos and Watson (New York, Academic Press, 1986; FIG. 8 and FIG. 14). The dialysis probe was positioned in a burr hole under stereotaxic guidance and cemented with phosphatine dental cement (DAB Dental).
The rats were housed individually in cages for 48 h before the dialysis experiments, allowing them to recover from surgery and minimizing the risk of drug interactions with the anesthetics during the following experiments. During this period the rats had free access to food and water. On the day of the experiment the rats were connected to a micro-perfusion pump via a swivel and were replaced in the cage where they could move freely within its confinements. The perfusion medium was a Ringer's solution containing (in mmol/l): NaCl; 140, CaCl2); 1.2, KCl; 3.0, MgCl2; 1.0 (Moghaddam and Bunney. Neurochem., 1989, 53; 652-4). The pump was set to a perfusion speed of 2 μl/min and 40 μl sample volume were collected every 20 min.
The rats were perfused for at least 40 min before sampling began. Five fractions of each 20 min were collected and the last three were used for the establishment of the baseline. After collection of baseline fractions, the pharmacological challenge to the dialysis experiment started. Test compounds were administrated by injection (s.c.) in a volume of 5 ml/kg, with 0.9% NaCl (saline) as vehicle.
The analytical method were based on two chromatographic separations dedicated for amines or acids. Two chromatographic systems shared a common auto injector with a 10-port valve and two sample loops for simultaneous injection on the two systems.
The acids were separated by reversed phase chromatography while the amines were separated by reversed phase ion pairing chromatography preceded by a reverse phase separation in a column switching configuration. Three separation columns (Luna C18 (2), dp 3 μm, 2 mm i.d., Phenomenex) of different lengths were used. Electrochemical detection was accomplished on glassy carbon electrodes (MF-1000, Bioanalytical Systems, Inc.)
The aqueous mobile phase (0.6 ml/min) for the acid system contained citric acid (40 mM, dipotassium hydrogen phosphate 10 mM, methanol 8-11% (v/v) and EDTA 0.1 mM. Column length was 30 mm and detection potential relative to Ag/AgCl reference was 0.74V.
The aqueous ion pairing mobile phase (0.4 ml/min) for the amine system contained citric acid 5 mM, sodium citrate 10 mM, acetone 9% (v/v), tetrahydrofurane 3% (v/v), dodecane sulphonic acid 0.025 mM, and EDTA 0.1 mM. Column length was 50 mm and the preceding column was 20 mm. […]

[1] = 50 μmol/kg s.c., striatum, n=1-3
[2] = 50 μmol/kg s.c., frontal cortex, n=1-3, read-out: 5-HT FC, maximum effect compared to baseline ± SEM
[3] = 50 μmol/kg s.c., striatum, n=1-3, read-out: 5-HT Stri, maximum effect compared to baseline ± SEM
[4] = 50 μmol/kg s.c., striatum, n=1-3, read-out: DA Stri, maximum effect compared to baseline ± SEM
[5] = 50 μmol/kg s.c., frontal cortex, n=1-3, read-out: DA FC, maximum effect compared to baseline ± SEM

Fc1cc(F)cc(OC2CNC2)c1.O=C(O)C(O)C(O)C(=O)O [Example 52B, 3-(3,5-difluorophenoxy)azetidine (+)-tartaric acid salt]
DOPAC cortex ± SEM (DOPAC): 229 ± 4.6*** % of control means | DOPAC striatum ± SEM (DOPAC): 72 ± 1.7*** % of control means | NA Stri, maximum effect compared to baseline ± SEM (NA, DA and 5-HT; Dose 16.7 μmol/kg s.c, striatum): 151^b % of control | response vs control in vivo at 16.7 µmol/kg (NA, DA and 5-HT; Dose 16.7 μmol/kg s.c, frontal cortex, read-out: 5-HT FC, maximum effect compared to baseline ± SEM): 213 ± 86% | response vs control in vivo at 16.7 µmol/kg (NA, DA and 5-HT; Dose 16.7 μmol/kg s.c, frontal cortex, read-out: DA FC, maximum effect compared to baseline ± SEM): 638 ± 106% | response vs control in vivo at 16.7 µmol/kg (NA, DA and 5-HT; Dose 16.7 μmol/kg s.c, frontal cortex, read-out: NA FC, maximum effect compared to baseline ± SEM): 968 ± 176% | response vs control in vivo at 16.7 µmol/kg (NA, DA and 5-HT; Dose 16.7 μmol/kg s.c, striatum, read-out: 5-HT Stri, maximum effect compared to baseline ± SEM): 146 ± 18% | response vs control in vivo at 16.7 µmol/kg (NA, DA and 5-HT; Dose 16.7 μmol/kg s.c, striatum, read-out: DA Stri, maximum effect compared to baseline ± SEM): 120 ± 6%

Fc1cccc(OC2CNC2)c1F [Example 1A, 3-(2,3-difluorophenoxy)azetidine hydrochloric acid salt]
DOPAC cortex ± SEM (DOPAC): 300 ± 26*** % of control means | DOPAC striatum ± SEM (DOPAC): 53 ± 2*** % of control means | NA Stri, maximum effect compared to baseline ± SEM (NA, DA and 5-HT; [1]): 155 ± 33^a % of control | response vs control in vivo at 50 µmol/kg (NA, DA and 5-HT; [2]): 207 ± 49% | response vs control in vivo at 50 µmol/kg (NA, DA and 5-HT; [3]): 217 ± 21% | response vs control in vivo at 50 µmol/kg (NA, DA and 5-HT; [4]): 155 ± 9.6%

Fc1ccc(F)c(OC2CNC2)c1F [Example 20, 3-(2,3,6-trifluorophenoxy)azetidine hydrochloric acid salt]
response vs control in vivo at 50 µmol/kg (NA, DA and 5-HT; [2]): 164 ± 36% | response vs control in vivo at 50 µmol/kg (NA, DA and 5-HT; [5]): 441 ± 35% | response vs control in vivo at 50 µmol/kg (NA, DA and 5-HT; [3]): 141% | response vs control in vivo at 50 µmol/kg (NA, DA and 5-HT; [4]): 146 ± 4%

Fc1cc(F)c(F)c(OC2CNC2)c1 [Example 2, 3-(2,3,5-trifluorophenoxy)azetidine hydrochloric acid salt]
DOPAC cortex ± SEM (DOPAC): 121 ± 5.6 % of control means | DOPAC striatum ± SEM (DOPAC): 96 ± 4 % of control means | response vs control in vivo at 50 µmol/kg (NA, DA and 5-HT; [2]): 160 ± 32% | response vs control in vivo at 50 µmol/kg (NA, DA and 5-HT; [5]): 600 ± 5.8% | response vs control in vivo at 50 µmol/kg (NA, DA and 5-HT; [3]): 202 ± 5.6% | response vs control in vivo at 50 µmol/kg (NA, DA and 5-HT; [4]): 134 ± 13%

Fc1cc(F)c(F)c(OC2CNC2)c1F [Example 3, 3-(2,3,5,6-tetrafluorophenoxy)-azetidine hydrochloric acid salt]
DOPAC cortex ± SEM (DOPAC): 201 ± 11*** % of control means | DOPAC striatum ± SEM (DOPAC): 158 ± 3.4*** % of control means | response vs control in vivo at 50 µmol/kg (NA, DA and 5-HT; [2]): 205 ± 78% | response vs control in vivo at 50 µmol/kg (NA, DA and 5-HT; [5]): 735 ± 18% | response vs control in vivo at 50 µmol/kg (NA, DA and 5-HT; [3]): 197 ± 80% | response vs control in vivo at 50 µmol/kg (NA, DA and 5-HT; [4]): 196 ± 22%

Clc1ccc(OC2CNC2)cc1Cl [Reference Compound, 3-(3,4-dichlorophenoxy)azetidine hydrochloric acid salt, reference compound]
DOPAC cortex ± SEM (DOPAC): 86 ± 5.6 % of control means | DOPAC striatum ± SEM (DOPAC): 89 ± 2.5 % of control means | NA Stri, maximum effect compared to baseline ± SEM (NA, DA and 5-HT; [1]): 987 ± 425 % of control | response vs control in vivo at 50 µmol/kg (NA, DA and 5-HT; [2]): 682 ± 14% | response vs control in vivo at 50 µmol/kg (NA, DA and 5-HT; [4]): 136 ± 48%

CCN1CC(Oc2c(F)c(F)cc(F)c2F)C1 [Example 39, 1-ethyl-3-(2,3,5,6-tetrafluorophenoxy)azetidine hydrochloric acid salt]
DOPAC cortex ± SEM (DOPAC): 191 ± 18** % of control means | DOPAC striatum ± SEM (DOPAC): 247 ± 13*** % of control means | NA Stri, maximum effect compared to baseline ± SEM (NA, DA and 5-HT; [1]): 334 ± 10^a % of control | response vs control in vivo at 50 µmol/kg (NA, DA and 5-HT; [2]): 256% | response vs control in vivo at 50 µmol/kg (NA, DA and 5-HT; [5]): 359% | response vs control in vivo at 50 µmol/kg (NA, DA and 5-HT; 50 μmol/kg s.c., frontal cortex, n=1-3, read-out: NA FC, maximum effect compared to baseline ± SEM): 414% | response vs control in vivo at 50 µmol/kg (NA, DA and 5-HT; [3]): 281% | response vs control in vivo at 50 µmol/kg (NA, DA and 5-HT; [4]): 218 ± 18%

Fc1cc(F)cc(OC2CNC2)c1 [Example 52C, 3-(3,5-difluorophenoxy)azetidine hydrochloric acid salt]
NA Stri, maximum effect compared to baseline ± SEM (NA, DA and 5-HT; [1]): 196 ± 26^a % of control | response vs control in vivo at 50 µmol/kg (NA, DA and 5-HT; [2]): 424 ± 119% | response vs control in vivo at 50 µmol/kg (NA, DA and 5-HT; [4]): 147 ± 6%
